Among the data in ChEMBL document CHEMBL5154769, “Discovery of the First-in-Class Agonist-Based SOS1 PROTACs Effective in Human Cancer Cells Harboring Various KRAS Mutations” (J Med Chem, 2022) are Activity and DC50 values, retold here.

In test [1] the target is T1, von Hippel-Lindau disease tumor suppressor/Son of sevenless homolog 1 (Homo sapiens, UniProt Q07889+P40337). Put plainly: Protac activity at VHL/SOS1 in human NCI-H358 cells assessed as SOS1 protein degradation at 1 uM incubated for 24 hr by Western blot analysis relative to control. The format is cell-based. A general note: Immunoblotting shows a protein as a band on a membrane.
Target sequence in this assay (P40337 whole entry, looked up): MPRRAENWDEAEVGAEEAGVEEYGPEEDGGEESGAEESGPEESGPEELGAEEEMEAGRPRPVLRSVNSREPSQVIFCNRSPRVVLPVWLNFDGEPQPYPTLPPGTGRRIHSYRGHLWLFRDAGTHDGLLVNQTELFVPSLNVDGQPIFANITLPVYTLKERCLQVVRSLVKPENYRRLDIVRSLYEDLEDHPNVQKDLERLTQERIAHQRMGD
Target sequence in this assay (Q07889 whole entry, looked up): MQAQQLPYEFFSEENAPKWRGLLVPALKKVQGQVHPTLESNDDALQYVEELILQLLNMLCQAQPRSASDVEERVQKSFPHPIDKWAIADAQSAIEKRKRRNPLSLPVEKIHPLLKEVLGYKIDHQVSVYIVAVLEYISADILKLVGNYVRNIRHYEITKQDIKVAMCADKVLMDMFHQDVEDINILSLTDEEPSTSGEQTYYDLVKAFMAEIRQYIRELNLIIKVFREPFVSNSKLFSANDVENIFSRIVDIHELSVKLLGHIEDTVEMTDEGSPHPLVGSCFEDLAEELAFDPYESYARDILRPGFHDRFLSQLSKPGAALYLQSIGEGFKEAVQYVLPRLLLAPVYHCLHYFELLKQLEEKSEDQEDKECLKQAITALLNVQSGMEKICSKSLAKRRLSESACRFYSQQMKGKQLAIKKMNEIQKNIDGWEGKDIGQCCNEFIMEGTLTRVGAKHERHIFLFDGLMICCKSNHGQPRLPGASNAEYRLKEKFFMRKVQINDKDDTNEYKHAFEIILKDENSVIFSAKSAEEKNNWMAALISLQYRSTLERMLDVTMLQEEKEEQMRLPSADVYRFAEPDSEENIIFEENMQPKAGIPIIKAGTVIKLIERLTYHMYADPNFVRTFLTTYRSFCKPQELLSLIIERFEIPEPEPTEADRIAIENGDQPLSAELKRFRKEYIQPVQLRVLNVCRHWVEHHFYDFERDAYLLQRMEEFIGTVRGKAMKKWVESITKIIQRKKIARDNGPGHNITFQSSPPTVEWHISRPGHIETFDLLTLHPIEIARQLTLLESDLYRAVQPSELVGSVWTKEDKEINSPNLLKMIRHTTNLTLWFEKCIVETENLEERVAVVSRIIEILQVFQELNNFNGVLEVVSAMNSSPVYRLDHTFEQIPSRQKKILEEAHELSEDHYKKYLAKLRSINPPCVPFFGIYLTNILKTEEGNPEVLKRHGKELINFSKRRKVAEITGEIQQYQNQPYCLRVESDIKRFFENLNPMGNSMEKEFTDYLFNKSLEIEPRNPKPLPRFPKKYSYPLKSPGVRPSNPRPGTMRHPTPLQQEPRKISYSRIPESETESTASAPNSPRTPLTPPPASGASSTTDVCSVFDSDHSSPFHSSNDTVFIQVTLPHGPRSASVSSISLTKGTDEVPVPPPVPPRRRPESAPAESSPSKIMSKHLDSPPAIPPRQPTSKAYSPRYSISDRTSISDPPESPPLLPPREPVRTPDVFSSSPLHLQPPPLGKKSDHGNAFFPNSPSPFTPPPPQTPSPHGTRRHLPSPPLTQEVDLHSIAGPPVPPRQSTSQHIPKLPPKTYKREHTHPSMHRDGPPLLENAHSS

Test [2] deals with T1, von Hippel-Lindau disease tumor suppressor/Son of sevenless homolog 1. Put plainly: Protac activity at VHL/SOS1 in human NCI-H358 cells assessed as SOS1 protein degradation incubated for 24 hr by Western blot analysis. In kind it is cell-based.
Target sequence in this assay (Q07889 whole entry): as the sequence (Q07889 whole entry, looked up) above
Target sequence in this assay (P40337 whole entry): as the sequence (P40337 whole entry, looked up) above
Test [3] shares this target. Description: Protac activity at VHL/SOS1 in human NCI-H358 cells assessed as SOS1 protein degradation at 0.1 uM incubated for 24 hr by Western blot analysis relative to control. The format is cell-based.
Target sequence in this assay (P40337 whole entry, looked up): as above
Target sequence in this assay (Q07889 whole entry, looked up): as the sequence (Q07889 whole entry, looked up) above
The test system of test [4] is NCI-H358. Description: Effect of compound on human NCI-H358 cells assessed as increase in phophorylated ERK level incubated for 24 hr by Western blot analysis. In kind it is functional, cell-based.

Activity calls are given as the source filed them. The rule behind the calls is not given here.

What is called DC50 is the concentration at which degradation of the target reaches its halfway point. Consider `Cc1cc(Cn2c(N3CC4(CNC4)C3)nc3c(N4CCN(CCCCCCCCCC(=O)N[C@H](C(=O)N5C[C@H](O)C[C@H]5C(=O)N[C@@H](C)c5ccc(-c6scnc6C)cc5)C(C)(C)C)CC4)cc(Cl)cc32)cc(C)c1F`, for which the figures for the Activity in test [1] and in test [3] were 82% and 38.5%, respectively. Besides, the DC50 in test [2] came to 182 nM.
Turning to `Cc1cc(Cn2c(N3CC4(CNC4)C3)nc3c(N4CCN(CCCCCCCCCCCC(=O)N[C@H](C(=O)N5C[C@H](O)C[C@H]5C(=O)N[C@@H](C)c5ccc(-c6scnc6C)cc5)C(C)(C)C)CC4)cc(Cl)cc32)cc(C)c1F`, the Activity in test [1] is 49%; in test [3], 33%.
Turning to `Cc1cc(Cn2c(N3CC4(CNC4)C3)nc3c(N4CCN(CCOCCOCCC(=O)N[C@H](C(=O)N5C[C@H](O)C[C@H]5C(=O)N[C@@H](C)c5ccc(-c6scnc6C)cc5)C(C)(C)C)CC4)cc(Cl)cc32)cc(C)c1F`, the Activity was 14% in test [1] and 4.4% in test [3].
In the case of `Cc1cc(Cn2c(N3CC4(CNC4)C3)nc3c(N4CCN(CCC(=O)NCCCC(=O)N[C@H](C(=O)N5C[C@H](O)C[C@H]5C(=O)N[C@@H](C)c5ccc(-c6scnc6C)cc5)C(C)(C)C)CC4)cc(Cl)cc32)cc(C)c1F`, the Activity in test [1] was determined as 18.3%; in test [3], 0%.
For `Cc1cc(Cn2c(N3CC4(CNC4)C3)nc3c(N4CCN(CCCC(=O)NCCCC(=O)N[C@H](C(=O)N5C[C@H](O)C[C@H]5C(=O)N[C@@H](C)c5ccc(-c6scnc6C)cc5)C(C)(C)C)CC4)cc(Cl)cc32)cc(C)c1F`, the Activity was determined as 12.7% in test [1] and 8% in test [3].
`Cc1cc(Cn2c(N3CC4(CNC4)C3)nc3c(N4CCN(CCCCCCCCC(=O)N[C@H](C(=O)N5C[C@@H](O)C[C@H]5C(=O)N[C@@H](C)c5ccc(-c6scnc6C)cc5)C(C)(C)C)CC4)cc(Cl)cc32)cc(C)c1F`: the result in test [4] was Active.
`Cc1cc(Cn2c(N3CC4(CNC4)C3)nc3c(N4CCN(CCOCCOCCOCCC(=O)N[C@H](C(=O)N5C[C@H](O)C[C@H]5C(=O)N[C@@H](C)c5ccc(-c6scnc6C)cc5)C(C)(C)C)CC4)cc(Cl)cc32)cc(C)c1F`: the Activity in test [1] was found to be 36.6%; in test [3] it was 15.4%.
The like results for `Cc1cc(Cn2c(N3CC4(CNC4)C3)nc3c(N4CCN(CCCCCC(=O)N[C@H](C(=O)N5C[C@H](O)C[C@H]5C(=O)N[C@@H](C)c5ccc(-c6scnc6C)cc5)C(C)(C)C)CC4)cc(Cl)cc32)cc(C)c1F` were, in that order, 30.4% and 5.8%.
For `Cc1cc(Cn2c(N3CC4(CNC4)C3)nc3c(N4CCN(CCCCCCCCCCC(=O)N[C@H](C(=O)N5C[C@H](O)C[C@H]5C(=O)N[C@@H](C)c5ccc(-c6scnc6C)cc5)C(C)(C)C)CC4)cc(Cl)cc32)cc(C)c1F` the same measures were 63.2% and 31.7%.
Take `Cc1cc(Cn2c(N3CC4(CNC4)C3)nc3c(N4CCN(C)CC4)cc(Cl)cc32)cc(C)c1F`: the outcome in test [4] was Active.
`Cc1cc(Cn2c(N3CC4(CNC4)C3)nc3c(N4CCN(CC5CCN(CCCC(=O)N[C@H](C(=O)N6C[C@H](O)C[C@H]6C(=O)N[C@@H](C)c6ccc(-c7scnc7C)cc6)C(C)(C)C)CC5)CC4)cc(Cl)cc32)cc(C)c1F`: the Activity in test [1] came out at 11.2%; in test [3], 7%.
`Cc1cc(Cn2c(N3CC4(CNC4)C3)nc3c(N4CCN(CCCCCCC(=O)N[C@H](C(=O)N5C[C@H](O)C[C@H]5C(=O)N[C@@H](C)c5ccc(-c6scnc6C)cc5)C(C)(C)C)CC4)cc(Cl)cc32)cc(C)c1F`: the Activity in test [1] was 79.9%; in test [3], 30.7%. In addition, in test [2], the half-maximal degradation concentration (DC50) turned out to be 216 nM.
For the compound `Cc1cc(Cn2c(N3CC4(CNC4)C3)nc3c(N4CCN(CC5CCN(CC(=O)N[C@H](C(=O)N6C[C@H](O)C[C@H]6C(=O)N[C@@H](C)c6ccc(-c7scnc7C)cc6)C(C)(C)C)CC5)CC4)cc(Cl)cc32)cc(C)c1F`, the Activity amounted to 43.3% in test [1] and 13% in test [3].
As for `Cc1cc(Cn2c(N3CC4(CNC4)C3)nc3c(N4CCN(CCCCCCCC(=O)N[C@H](C(=O)N5C[C@H](O)C[C@H]5C(=O)N[C@@H](C)c5ccc(-c6scnc6C)cc5)C(C)(C)C)CC4)cc(Cl)cc32)cc(C)c1F`, the values for the Activity in test [1] and in test [3] were 80.9% and 27.6%, respectively. Moreover, in test [2], the DC50 was determined as 150 nM.
`Cc1cc(Cn2c(N3CC4(CNC4)C3)nc3c(N4CCN(CC5CCN(CCC(=O)N[C@H](C(=O)N6C[C@H](O)C[C@H]6C(=O)N[C@@H](C)c6ccc(-c7scnc7C)cc6)C(C)(C)C)CC5)CC4)cc(Cl)cc32)cc(C)c1F`: the Activity in test [1] is 9.4%; in test [3], 18.1%.
For `Cc1cc(Cn2c(N3CC4(CNC4)C3)nc3c(N4CCN(CCOCCOCC(=O)N[C@H](C(=O)N5C[C@H](O)C[C@H]5C(=O)N[C@@H](C)c5ccc(-c6scnc6C)cc5)C(C)(C)C)CC4)cc(Cl)cc32)cc(C)c1F` the same measures were 24.4% and 23.3%.
On to `Cc1cc(Cn2c(N3CC4(CNC4)C3)nc3c(N4CCN(CCCCC(=O)NCCCC(=O)N[C@H](C(=O)N5C[C@H](O)C[C@H]5C(=O)N[C@@H](C)c5ccc(-c6scnc6C)cc5)C(C)(C)C)CC4)cc(Cl)cc32)cc(C)c1F`, for which the results for the Activity in test [1] and in test [3] were 0% and 3.2%, respectively.
